Read-outs that look alike come from different tables or passages of the source.
What was measured:
human GluN1/GluN2B = human GluN1/GluN2B (Homo sapiens (Human), UniProt Q05586+Q13224); assay: Two electrode voltage-clamp recordings from Xenopus laevis oocytes, GluN2B potency and pH dependence; format: cell-based; conditions: for pH Boost: ratio of IC50 at pH 7.6 to IC50 at pH 6.9
Method: Two Electrode Voltage-Clamp Recordings from Xenopus laevis Oocytes
Stage V-VI Xenopus laevis unfertilized oocytes were purchased from Ecocyte (Austin, Texas) and injected with 5 ng of GluN1 and 10 ng of GluN2B cRNAs. The cDNAs for human GluN1 and GluN2B, encoding NCBI reference sequences NM_007327.3 and NM_000834.3, respectively, were linearized and cRNAs made as previously described (Traynelis et al., J Neurosci, 1998, 18(16):6163-75). After injection, the oocytes were incubated in Barth's culture solution (88 mM NaCl, 1 mM KCl, 2.4 mM NaHCO3, 10 mM HEPES, 0.82 mM MgSO4, 0.33 mM Ca(NO3)2, 0.41 mM CaCl2), 10 U/mL PenStrep, and 0.1 mg/mL gentamycin, pH 7.4) at 18° C. Two electrode voltage-clamp (TEVC) recordings were made at 22-23° C., 2-7 days after the injection, using Warner OC725C amplifiers (VHOLD=−40 mV). Briefly, the oocytes were perfused in a recording solution (90 mM NaCl, 1 mM KCl, 10 mM HEPES, 0.01 mM EDTA, and 0.5 mM BaCl2) adjusted to either pH 7.6 or 6.9 by addition of NaOH or HCl, respectively (pH 6.9 solutions were prepared by addition of HCl to pH 7.6 solutions to maintain an equal concentration of Na^+ ions in both solutions). Concentration-response curves of the compounds were obtained by application of increasing concentrations of each individual compound until steady state conditions were obtained, in the presence of saturating agonist concentrations (i.e., 100 μM glutamate and 30 μM glycine). In general, oocyte recordings were made from 4-10 oocytes per experiment (i.e., oocyte injection cycle) from ≥two experiments. The concentration-response relationship for each oocyte was fit by equation (1),
Percent Response=(100−minimum)/(1+([concentration]/IC50)^nH)+minimum (1)
where minimum is the residual response in saturating concentration of each individual compound (constrained to be ≥0), and IC50 is the concentration of compound that causes half-maximal inhibition, and nH is the Hill slope.

[1] = system: horizontal locomotor activity of mice; assay: Locomotor activity; format: in vivo, mouse; conditions: 0.3 mg/kg IP, two hours
Source text: (§1) The locomotor and rotarod studies were approved by the Georgia State University IACUC, an AAALAC accredited institution under the supervision of licensed veterinarians. Mice were group housed, provided nestlets and shelters with access to food pellets and water ad libitum under a 12-hour light/dark cycle.
For locomotor activity measurements, mice (C57B16, >90 days old, Jackson Labs) were placed in a closed (with light on) activity monitoring box for one hour to habituate prior to drug testing. After one hour, animals were removed and injected (IP) with drug and then returned to the activity monitoring box and total locomotor activity was monitored for two hours. The total number of light beam breaks in the cage (horizontal) was determined by a computer and results averaged for each drug. Results were analyzed by ANOVA and Dunnett's post hoc test to compare horizontal activity of drug-treated groups to vehicle controls. Male animals were used for these behavioral tests given only male mice were used in the MCAO transient ischemia studies.

[2] = system: motor coordination of mice on rotarod; assay: Rotarod performance; format: in vivo, mouse; conditions: 30 mg/kg IP, all four trials
Method: as §1
For rotarod experiments, male C57BL/6 mice (>90 days old) were tested using a Rotamax 4/8 rotarod (Columbus Instruments, Columbus, Ohio). Prior to training and testing, the mice were brought to the testing room and allowed to acclimate for two hours prior to any further handling. Mice were placed on a rotating rod (5 rpm), 3.8 cm in diameter and 8 cm wide, elevated 30 cm from the floor of a chamber. After 10 sec of rotation at a fixed velocity, the rotation was slowly accelerated from 5 to 35 rpm over a 5 min period. The duration of time that the mouse could stay on the rotarod, without hanging on for a full rotation or without falling, was recorded. Mice were trained 4 times at 25 min inter-trial intervals on each day for two days. On day three, mice were randomly assigned to treatment groups and administered test drug or vehicle (via IP administration) 25 min prior to testing (4 trials with inter-trial interval of 25 min). Individuals performing the experiment were blinded to the identity of each treatment group. Results were analyzed by ANOVA and Dunnett's post hoc test to compare duration of time on the rotating rod of drug-treated groups to the vehicle controls.

[3] = pH 6.9, read-out: IC50 (μM) pH 6.9
[4] = pH 7.6, read-out: IC50 (μM) pH 7.6

human GluN1/GluN2B, sequence (Q13224 27-1484, other chains not shown): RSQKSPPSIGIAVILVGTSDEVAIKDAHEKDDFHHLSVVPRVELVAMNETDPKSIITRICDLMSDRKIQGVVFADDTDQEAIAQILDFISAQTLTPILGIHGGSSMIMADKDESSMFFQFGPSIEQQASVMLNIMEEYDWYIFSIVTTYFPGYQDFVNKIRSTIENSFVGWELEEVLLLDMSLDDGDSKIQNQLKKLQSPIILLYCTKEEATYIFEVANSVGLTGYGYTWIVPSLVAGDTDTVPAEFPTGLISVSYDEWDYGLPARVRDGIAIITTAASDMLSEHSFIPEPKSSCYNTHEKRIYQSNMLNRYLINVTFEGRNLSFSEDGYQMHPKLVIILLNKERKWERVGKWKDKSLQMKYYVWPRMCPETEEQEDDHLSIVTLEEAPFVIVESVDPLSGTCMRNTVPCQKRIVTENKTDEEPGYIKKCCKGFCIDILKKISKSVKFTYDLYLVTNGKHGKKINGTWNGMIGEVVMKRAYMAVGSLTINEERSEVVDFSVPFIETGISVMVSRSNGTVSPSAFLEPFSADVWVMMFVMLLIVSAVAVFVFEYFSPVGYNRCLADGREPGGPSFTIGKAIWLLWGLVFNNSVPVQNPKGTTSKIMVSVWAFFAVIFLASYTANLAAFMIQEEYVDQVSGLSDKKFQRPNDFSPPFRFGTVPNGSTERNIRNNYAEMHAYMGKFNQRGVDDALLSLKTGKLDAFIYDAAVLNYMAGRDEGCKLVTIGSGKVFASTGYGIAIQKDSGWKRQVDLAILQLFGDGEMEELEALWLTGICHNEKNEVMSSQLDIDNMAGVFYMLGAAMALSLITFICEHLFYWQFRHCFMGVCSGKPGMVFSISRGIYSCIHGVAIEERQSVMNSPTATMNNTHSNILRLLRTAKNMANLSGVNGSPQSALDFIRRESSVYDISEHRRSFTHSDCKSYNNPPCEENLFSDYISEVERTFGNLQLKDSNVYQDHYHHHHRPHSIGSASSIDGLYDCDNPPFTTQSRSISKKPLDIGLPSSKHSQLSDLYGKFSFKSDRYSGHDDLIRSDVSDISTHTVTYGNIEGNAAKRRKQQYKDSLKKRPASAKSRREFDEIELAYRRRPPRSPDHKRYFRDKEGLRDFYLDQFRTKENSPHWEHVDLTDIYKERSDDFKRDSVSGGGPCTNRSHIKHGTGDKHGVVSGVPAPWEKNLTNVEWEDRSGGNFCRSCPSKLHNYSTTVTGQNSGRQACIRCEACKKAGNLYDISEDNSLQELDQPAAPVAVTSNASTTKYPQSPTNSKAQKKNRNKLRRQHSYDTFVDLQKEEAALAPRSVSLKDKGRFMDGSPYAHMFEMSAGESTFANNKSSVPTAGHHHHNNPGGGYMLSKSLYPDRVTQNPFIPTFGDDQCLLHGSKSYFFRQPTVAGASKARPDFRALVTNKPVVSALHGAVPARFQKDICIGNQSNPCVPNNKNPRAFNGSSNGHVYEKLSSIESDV

SMILES	potency against GluN2B compared to corresponding S enantiomer (human GluN1/GluN2B)	IC50 (human GluN1/GluN2B; [3])	IC50 (human GluN1/GluN2B; [4])	pH Boost (human GluN1/GluN2B)	horizontal activity compared to the vehicle control [1]	latency-to-fall score [2]	IC50 (human GluN1/GluN2B; pH 6.9, read-out: IC50 value at pH 6.9)	IC50 (human GluN1/GluN2B; pH 7.6, read-out: IC50 value at pH 7.6)
CCCCc1ccc(N2CCN(C[C@@H](O)COc3ccc(O)cc3)CC2)cc1 [Compound 10249]	lower potency	0.549 µM	3.42 µM	6.2	–	–	–	–
NC(=O)Nc1ccc(OC[C@H](O)CN2CCN(c3ccc(Cl)c(Cl)c3)CC2)cc1 [Compound 10166]	–	0.03 µM	0.132 µM	4.4	–	–	–	–
Oc1ccc(OC[C@@H](O)CN2CCN(c3ccc(F)c(F)c3)CC2)cc1 [Compound 10030]	–	0.087 µM	0.978 µM	11.2	–	–	–	–
NC(=O)Nc1ccc(OC[C@@H](O)CN2CCN(c3ccc(Cl)cc3)CC2)cc1 [Compound 10075]	–	0.046 µM	0.452 µM	9.8	–	–	–	–
O=C1Cc2cc(OC[C@H](O)CN3CCN(c4ccc(Cl)cc4)CC3)ccc2N1 [Compound 10228]	lower potency	0.121 µM	0.592 µM	4.9	–	–	–	–
C[C@]12N[C@H](Cc3ccccc31)c1ccccc12 [MK-801]	–	–	–	–	significant increase	–	–	–
CCc1ccc(N2CCN(C[C@@H](O)COc3ccc(NC(N)=O)cc3)CC2)cc1 [Compound 10222]	–	0.052 µM	0.183 µM	3.5	–	–	–	–
Oc1ccc(OC[C@H](O)CN2CCN(c3ccc(F)c(F)c3)CC2)cc1 [Compound 10052]	–	0.05 µM	0.272 µM	5.4	–	–	–	–
CCc1ccc(N2CCN(C[C@H](O)COc3ccc(O)cc3)CC2)cc1 [Compound 10171]	–	0.046 µM	0.316 µM	6.9	–	–	–	–
O=C1Cc2cc(OC[C@@H](O)CN3CCN(c4ccc(Cl)cc4)CC3)ccc2N1 [Compound 10146]	–	0.029 µM	0.37 µM	12.8	–	–	–	–
CCc1ccc(N2CCN(C[C@H](O)COc3ccc(NC(N)=O)cc3)CC2)cc1 [Compound 10189]	–	0.094 µM	1 µM	10.6	–	–	–	–
CCCCc1ccc(N2CCN(C[C@H](O)COc3ccc(O)cc3)CC2)cc1 [Compound 10235]	–	0.398 µM	4.38 µM	11.0	–	–	–	–
CC(C)c1ccc(N2CCN(C[C@H](O)COc3ccc(O)cc3)CC2)cc1 [Compound 10082]	–	0.356 µM	1.37 µM	3.8	–	–	–	–
Oc1ccc(OC[C@H](O)CN2CCN(c3ccccc3)CC2)cc1 [Compound 10243]	–	0.071 µM	0.574 µM	8.1	–	–	–	–
CC(C(O)c1ccc(O)cc1)N1CCC(Cc2ccccc2)CC1 (stereo not shown) [ifenprodil, reference compound]	–	–	–	–	–	significant reduction	–	–
NC(=O)Nc1ccc(OC[C@@H](O)CN2CCN(c3ccc(Cl)c(Cl)c3)CC2)cc1 [Compound 10131]	–	0.103 µM	0.947 µM	9.2	–	–	–	–

SMILES	potency against GluN2B compared to corresponding S enantiomer (human GluN1/GluN2B)	IC50 (human GluN1/GluN2B; [3])	IC50 (human GluN1/GluN2B; [4])	pH Boost (human GluN1/GluN2B)	horizontal activity compared to the vehicle control [1]	latency-to-fall score [2]	IC50 (human GluN1/GluN2B; pH 6.9, read-out: IC50 value at pH 6.9)	IC50 (human GluN1/GluN2B; pH 7.6, read-out: IC50 value at pH 7.6)
NC(=O)Nc1ccc(OC[C@H](O)CN2CCN(c3ccc(F)cc3)CC2)cc1 [Compound 10225]	–	0.097 µM	0.527 µM	5.4	–	–	–	–
NC(=O)Nc1ccc(OC[C@@H](O)CN2CCN(c3ccc(F)cc3)CC2)cc1 [Compound 10214]	–	0.221 µM	2.18 µM	9.9	–	–	–	–
CCc1ccc(N2CCN(C[C@@H](O)COc3ccc(O)cc3)CC2)cc1 [Compound 10245]	–	0.025 µM	0.385 µM	15.4	–	–	–	–
CS(=O)(=O)Nc1ccc(OC[C@H](O)CN2CCN(c3ccc(F)c(F)c3)CC2)cc1 [Compound 10233]	lower potency	0.047 µM	0.294 µM	6.3	–	–	–	–
NC(=O)Nc1ccc(OC[C@H](O)CN2CCN(c3ccc(Cl)cc3)CC2)cc1 [Compound 10165]	–	0.019 µM	0.06 µM	3.2	–	–	–	–
Cc1ccc(N2CCN(C[C@H](O)COc3ccc(O)cc3)CC2)cc1 [Compound 10040]	–	0.074 µM	0.26 µM	3.5	–	–	–	–
Oc1ccc(OC[C@@H](O)CN2CCN(c3ccccc3)CC2)cc1 [Compound 10039]	–	0.217 µM	0.476 µM	2.2	–	–	–	–
NC(=O)Nc1ccc(OC[C@@H](O)CN2CCN(c3ccc(C(F)(F)F)cc3)CC2)cc1 [Compound 10294]	–	0.03 µM	0.209 µM	7.0	–	–	–	–
Cc1ccc(N2CCN(C[C@@H](O)COc3ccc(O)cc3)CC2)cc1 [Compound 10244]	–	0.047 µM	0.305 µM	6.5	–	–	–	–
CS(=O)(=O)Nc1ccc(OC[C@@H](O)CN2CCN(c3ccc(F)c(F)c3)CC2)cc1 [Compound 93-108]	–	0.031 µM	0.558 µM	18.0	–	–	–	–
CC(C)c1ccc(N2CCN(C[C@@H](O)COc3ccc(O)cc3)CC2)cc1 [Compound 10247]	–	0.144 µM	0.675 µM	4.7	–	–	–	–
NC(=O)Nc1ccc(OC[C@H](O)CN2CCN(c3ccc(C(F)(F)F)cc3)CC2)cc1 [Compound 10272]	–	0.022 µM	0.128 µM	5.8	–	–	–	–
O=C1CCc2cc(OC[C@@H](O)CN3CCN(c4ccc(C(F)(F)F)cc4)CC3)ccc2N1 [NP10309]	–	0.111 µM	0.717 µM	6.5	–	–	0.111 µM	0.717 µM
CCCc1ccc(N2CCN(C[C@@H](O)COc3ccc(NC(N)=O)cc3)CC2)cc1 [Compound 10224]	–	0.034 µM	0.171 µM	5.0	–	–	–	–
CCCc1ccc(N2CCN(C[C@H](O)COc3ccc(NC(N)=O)cc3)CC2)cc1 [Compound 10215]	–	0.13 µM	1.3 µM	10.0	–	–	–	–

— US20240360091A1, “GLUN2B-SUBUNIT SELECTIVE ANTAGONISTS OF THE N-METHYL-D-ASPARTATE RECEPTORS WITH ENHANCED POTENCY AT ACIDIC PH” (Emory University, priority 2021, published 2024)
